Reference: US12077503B2, “Substituted cyclic amides and their use as herbicides” (FMC CORPORATION, priority 2015, dated 2024)

How the values were obtained:
Assay type in all cases: in vivo
[1] = test system: giant foxtail (Setaria faberi); test: Test G Post-Emergence Protocol; details: Setaria faberi, post-emergence, 312 h, read-out: Foxtail, Giant damage rating; for pest or weed control at 15.625 g/ha: 15.625 g ai/ha, evaluated after 13 days (100=total damage to plant; 0=no damage to plant); for pest or weed control at 62.5 g/ha: 62.5 g ai/ha; for pest or weed control at 62.5 g/ha / pest or weed control at 250 g/ha: evaluated after 13 days, 100=total damage to plant, 0=no damage to plant; for pest or weed control at 250 g/ha: 250 g ai/ha
Summary of the method: (§1)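 Seedlings grown 8 days in soil in a glasshouse (24/16 °C day/night, 14 h light, 65% humidity) were sprayed post-emergence with compound in acetone/water 50:50 plus 0.5% Tween 20 at 15.625, 62.5 or 250 g/ha. Damage was scored after 13 days on a 0–100 scale (100 = total damage).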

corn (Zea mays) [2] = test: Test G Post-Emergence Protocol; details: Zea mays, post-emergence, 312 h, read-out: Corn damage rating; for plant injury at 15.625 g/ha: 15.625 g ai/ha, evaluated after 13 days (100=total damage to plant; 0=no damage to plant); for plant injury at 62.5 g/ha: 62.5 g ai/ha; for plant injury at 62.5 g/ha / plant injury at 250 g/ha: evaluated after 13 days, 100=total damage to plant, 0=no damage to plant; for plant injury at 250 g/ha: 250 g ai/ha
Summary of the method: as §1

[3] = test system: redroot pigweed (Amaranthus retroflexus); test: Test G Post-Emergence Protocol; details: Amaranthus retroflexus, post-emergence, 312 h, read-out: Pigweed, Redroot damage rating; for pest or weed control at 15.625 g/ha: 15.625 g ai/ha, evaluated after 13 days (100=total damage to plant; 0=no damage to plant); for pest or weed control at 62.5 g/ha: 62.5 g ai/ha; for pest or weed control at 62.5 g/ha / pest or weed control at 250 g/ha: evaluated after 13 days, 100=total damage to plant, 0=no damage to plant; for pest or weed control at 250 g/ha: 250 g ai/ha
Summary of the method: as §1

[4] = test system: velvetleaf (Abutilon theophrasti); test: Test G Post-Emergence Protocol; details: Abutilon theophrasti, post-emergence, 312 h, read-out: Velvetleaf damage rating; for pest or weed control at 15.625 g/ha: 15.625 g ai/ha, evaluated after 13 days (100=total damage to plant; 0=no damage to plant); for pest or weed control at 62.5 g/ha: 62.5 g ai/ha; for pest or weed control at 62.5 g/ha / pest or weed control at 250 g/ha: evaluated after 13 days, 100=total damage to plant, 0=no damage to plant; for pest or weed control at 250 g/ha: 250 g ai/ha
Summary of the method: as §1

[5] = test system: barnyardgrass (Echinochloa crus-galli); test: Test G Post-Emergence Protocol; details: Echinochloa crus-galli, post-emergence, 312 h, read-out: Barnyardgrass damage rating; for pest or weed control at 15.625 g/ha: 15.625 g ai/ha, evaluated after 13 days (100=total damage to plant; 0=no damage to plant); for pest or weed control at 62.5 g/ha: 62.5 g ai/ha; for pest or weed control at 62.5 g/ha / pest or weed control at 250 g/ha: evaluated after 13 days, 100=total damage to plant, 0=no damage to plant; for pest or weed control at 250 g/ha: 250 g ai/ha
Summary of the method: as §1

[6] = test system: ivy-leaved morning glory (Ipomoea hederacea); test: Test G Post-Emergence Protocol; details: Ipomoea, post-emergence, 312 h, read-out: Morningglory, Ivy-leaved damage rating; for pest or weed control at 15.625 g/ha: 15.625 g ai/ha, evaluated after 13 days (100=total damage to plant; 0=no damage to plant); for pest or weed control at 62.5 g/ha: 62.5 g ai/ha; for pest or weed control at 62.5 g/ha / pest or weed control at 250 g/ha: evaluated after 13 days, 100=total damage to plant, 0=no damage to plant; for pest or weed control at 250 g/ha: 250 g ai/ha
Summary of the method: as §1

[7] = test system: giant foxtail (Setaria faberi); test: Test G Pre-Emergence Protocol; details: Setaria faberi, pre-emergence, 312 h, evaluated after 13 days; for pest or weed control at 15.625 g/ha: 15.625 g ai/ha; for pest or weed control at 15.625 g/ha / pest or weed control at 250 g/ha: read-out: Foxtail, Giant damage rating (100=total damage to plant; 0=no damage to plant); for pest or weed control at 62.5 g/ha: 62.5 g ai/ha, 100=total damage to plant, 0=no damage to plant, read-out: Foxtail, Giant damage rating; for pest or weed control at 250 g/ha: 250 g ai/ha
Summary of the method: (§2)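 Under a 24/16° C day/night regime with 14 h light and 65% humidity, sown pots were sprayed after one day with compound (15.625, 62.5 or 250 g/ha; 50:50 acetone/water, 0.5% Tween 20). Damage was assessed visually 13 days later, 0 to 100.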

corn (Zea mays) [8] = test: Test G Pre-Emergence Protocol; details: Zea mays, pre-emergence, 312 h, evaluated after 13 days; for plant injury at 15.625 g/ha: 15.625 g ai/ha; for plant injury at 15.625 g/ha / plant injury at 250 g/ha: read-out: Corn damage rating (100=total damage to plant; 0=no damage to plant); for plant injury at 62.5 g/ha: 62.5 g ai/ha, 100=total damage to plant, 0=no damage to plant, read-out: Corn damage rating; for plant injury at 250 g/ha: 250 g ai/ha
Summary of the method: as §2

[9] = test system: redroot pigweed (Amaranthus retroflexus); test: Test G Pre-Emergence Protocol; details: Amaranthus retroflexus, pre-emergence, 312 h, evaluated after 13 days; for pest or weed control at 15.625 g/ha: 15.625 g ai/ha; for pest or weed control at 15.625 g/ha / pest or weed control at 250 g/ha: read-out: Pigweed, Redroot damage rating (100=total damage to plant; 0=no damage to plant); for pest or weed control at 62.5 g/ha: 62.5 g ai/ha, 100=total damage to plant, 0=no damage to plant, read-out: Pigweed, Redroot damage rating; for pest or weed control at 250 g/ha: 250 g ai/ha
Summary of the method: as §2

[10] = test system: velvetleaf (Abutilon theophrasti); test: Test G Pre-Emergence Protocol; details: Abutilon theophrasti, pre-emergence, 312 h, evaluated after 13 days; for pest or weed control at 15.625 g/ha: 15.625 g ai/ha; for pest or weed control at 15.625 g/ha / pest or weed control at 250 g/ha: read-out: Velvetleaf damage rating (100=total damage to plant; 0=no damage to plant); for pest or weed control at 62.5 g/ha: 62.5 g ai/ha, 100=total damage to plant, 0=no damage to plant, read-out: Velvetleaf damage rating; for pest or weed control at 250 g/ha: 250 g ai/ha
Summary of the method: as §2

[11] = test system: barnyardgrass (Echinochloa crus-galli); test: Test G Pre-Emergence Protocol; details: Echinochloa crus-galli, pre-emergence, 312 h, evaluated after 13 days; for pest or weed control at 15.625 g/ha: 15.625 g ai/ha; for pest or weed control at 15.625 g/ha / pest or weed control at 250 g/ha: read-out: Barnyardgrass damage rating (100=total damage to plant; 0=no damage to plant); for pest or weed control at 62.5 g/ha: 62.5 g ai/ha, 100=total damage to plant, 0=no damage to plant, read-out: Barnyardgrass damage rating; for pest or weed control at 250 g/ha: 250 g ai/ha
Summary of the method: as §2

[12] = test system: ivy-leaved morning glory (Ipomoea hederacea); test: Test G Pre-Emergence Protocol; details: Ipomoea, pre-emergence, 312 h, evaluated after 13 days; for pest or weed control at 15.625 g/ha: 15.625 g ai/ha; for pest or weed control at 15.625 g/ha / pest or weed control at 250 g/ha: read-out: Morningglory, Ivy-leaved damage rating (100=total damage to plant; 0=no damage to plant); for pest or weed control at 62.5 g/ha: 62.5 g ai/ha, 100=total damage to plant, 0=no damage to plant, read-out: Morningglory, Ivy-leaved damage rating; for pest or weed control at 250 g/ha: 250 g ai/ha
Summary of the method: as §2

CN1C[C@H](c2ccc(F)c(C#N)c2)[C@@H](C(=O)Nc2ccccc2S(C)(=O)=O)C1=O (racemic) [Compound 1798]
20%: pest or weed control at 62.5 g/ha [1] | pest or weed control at 250 g/ha [3] | pest or weed control at 250 g/ha [9]
10%: pest or weed control at 250 g/ha [1] | pest or weed control at 62.5 g/ha [7] | pest or weed control at 250 g/ha [10] | pest or weed control at 250 g/ha [11]
30%: pest or weed control at 250 g/ha [7]
0%: pest or weed control at 15.625 g/ha [1] | plant injury at 15.625 g/ha (corn (Zea mays) [2]) | plant injury at 62.5 g/ha (corn (Zea mays) [2]) | plant injury at 250 g/ha (corn (Zea mays) [2]) | pest or weed control at 15.625 g/ha [3] | pest or weed control at 62.5 g/ha [3] | pest or weed control at 15.625 g/ha [4] | pest or weed control at 62.5 g/ha [4] | pest or weed control at 250 g/ha [4] | pest or weed control at 15.625 g/ha [5] | pest or weed control at 62.5 g/ha [5] | pest or weed control at 250 g/ha [5] | pest or weed control at 15.625 g/ha [6] | pest or weed control at 62.5 g/ha [6] | pest or weed control at 250 g/ha [6] | pest or weed control at 15.625 g/ha [7] | plant injury at 15.625 g/ha (corn (Zea mays) [8]) | plant injury at 62.5 g/ha (corn (Zea mays) [8]) | plant injury at 250 g/ha (corn (Zea mays) [8]) | pest or weed control at 15.625 g/ha [9] | pest or weed control at 62.5 g/ha [9] | pest or weed control at 15.625 g/ha [10] | pest or weed control at 62.5 g/ha [10] | pest or weed control at 15.625 g/ha [11] | pest or weed control at 62.5 g/ha [11] | pest or weed control at 15.625 g/ha [12] | pest or weed control at 62.5 g/ha [12] | pest or weed control at 250 g/ha [12]

Cc1cccc(NC(=O)[C@H]2C(=O)N(C)C[C@@H]2c2ccc(C(F)(F)F)cc2)[n+]1[O-] (racemic) [Compound 1805]
20%: pest or weed control at 62.5 g/ha [4] | pest or weed control at 15.625 g/ha [9] | pest or weed control at 62.5 g/ha [10] | pest or weed control at 250 g/ha [10]
40%: pest or weed control at 250 g/ha [1] | pest or weed control at 250 g/ha [3]
30%: pest or weed control at 62.5 g/ha [1] | pest or weed control at 250 g/ha [4] | pest or weed control at 62.5 g/ha [6] | pest or weed control at 250 g/ha [6] | pest or weed control at 250 g/ha [9]
10%: pest or weed control at 15.625 g/ha [3] | pest or weed control at 250 g/ha [7] | pest or weed control at 62.5 g/ha [9]
60%: pest or weed control at 62.5 g/ha [3]
0%: pest or weed control at 15.625 g/ha [1] | plant injury at 15.625 g/ha (corn (Zea mays) [2]) | plant injury at 62.5 g/ha (corn (Zea mays) [2]) | plant injury at 250 g/ha (corn (Zea mays) [2]) | pest or weed control at 15.625 g/ha [4] | pest or weed control at 15.625 g/ha [5] | pest or weed control at 62.5 g/ha [5] | pest or weed control at 250 g/ha [5] | pest or weed control at 15.625 g/ha [6] | pest or weed control at 15.625 g/ha [7] | pest or weed control at 62.5 g/ha [7] | plant injury at 15.625 g/ha (corn (Zea mays) [8]) | plant injury at 62.5 g/ha (corn (Zea mays) [8]) | plant injury at 250 g/ha (corn (Zea mays) [8]) | pest or weed control at 15.625 g/ha [10] | pest or weed control at 15.625 g/ha [11] | pest or weed control at 62.5 g/ha [11] | pest or weed control at 250 g/ha [11] | pest or weed control at 15.625 g/ha [12] | pest or weed control at 62.5 g/ha [12] | pest or weed control at 250 g/ha [12]
